Measured values as given in US5382586A, “Aryl (or heteroaryl)piperazinylalkylazole derivatives, their preparation and their application as medicaments” (priority 1991, dated 1995).

Experiments:
[1] = tested on: norepinephrine-induced death in rats; assay: norepinephrine antagonism test in rats (antihypertensive activity); type: in vivo, rat (male Wister); conditions: D = 40 mg/kg, i.p.; rat; norepinephrine 1.25 mg/kg i.v. after 2 hours
Method: This activity is manifested by the protection of animals before death induced by an intravenous injection of norepinephrine, which produces a hypertensive attack in rats.
Male Wister rats weighing 200 grammes are used in this test. The product to be studied is administered intraperitoneally and 1.25 mg/kg (i.v.) of norepinephrine are administered after 2 hours.
The initial administration dose in these studies is 40 mg/kg (i.p.).

immobility of mice = assay: desperate behaviour test (antidepressant activity); type: in vivo, mouse; conditions: i.p.
Method: The desperate behaviour test in mice, described by R. D. Porsolt et al. (Arch. Int. Pharmacodyn. 1977, 229, 327-336), is used.
The animals are placed for 6 minutes in a cylinder containing water, from which they are not able to escape. The period of immobility between minutes 2 and 5 is determined for groups of 10 mice per dosage tested.
The product studied is administered i.p. 1 hour before the test. In this test the immobility of the animals is explained as being produced by their depressed state resulting from being faced with an adverse and insoluble situation in a hostile environment such as water.
In our test imipramine (30 mg/kg; i.p.) was used as reference product.

[2] = tested on: conditioned avoidance response in male Wistar rats; assay: conditioned avoidance response test (inhibition of the conditioned avoidance response; anxiolytic/tranquillising activity); type: in vivo, rat (male Wistar); conditions: rat
Method: Male Wistar rats weighing 200 grammes which have been trained to jump over a barrier in an avoidance and escape cage (shuttle box) (Letica, reference LI 910 and LI 2700) within 30 seconds of their being introduced into the cage are used in this test.
The products having an anxiolytic or tranquillising activity suppress the conditioned avoidance response.
Training: day one: 11 trials at 3 minute intervals. Electric shock to the paws after 30 seconds (5 mA, 0.1 s, 10 s).
Days two and three: 2 trials per day, with the selected rats only [sum of the scores for the first day (with the exception of the first trial)>14].
Test day: groups formed by selected rats. Oral administration of the product or the vehicle 45 minutes before the start of the study.

[3] = tested on: familiarisation process in mice; assay: light box/dark box test: familiarisation process (improvement of cognition); type: in vivo, mouse; design: Time in the box, dark (D): unit not given here
Source text: The influence of this product on the familiarisation process of mice in the light box/dark box test described by J. M. Barnes et al., (Pharmacol. Biochem. Behav., 1990, 35, 955-962) is studied. On the one hand, the effect on learning (the speed of familiarisation) and on the other hand the capacity for blocking contrary effects produced by escopolamine are studied.
The mouse is placed in the light zone of a box divided into two compartments, one brightly illuminated, the light box, and the other with little illumination, the dark box.
1) The number of times the mouse stands up on the hind paws in each compartment during a 5 minute period is counted (see Column 1 of the table below).
2) The activity in each compartment is given by counting the number of crossings through the squares which form the divisions of each compartment (see Column 2 of the table below).
3) The time passed in the dark box during the 5 minute counting period is determined (see Column 3 of the table below).
4) The initial latent period is determined, that is to say the time which elapses after the animal is placed in the light box, at the start of the test, before it enters the dark box (see Column 4 of the table below).
Two treatments with the vehicle are administered to the control animals per day. Two doses of 0.00001 ng/kg p.o. of compound 42 are administered per day to the animals treated with this product. The same operation is repeated daily for 5 days.
The animals learn to remain in the dark box for a longer period and to go into the box more rapidly.
On day six escopolamine (2×0.25 mg/kg, i.p.) is administered.
They recover the learned habit on day seven.

[4] = day 1, 0.00001 ng/kg, p.o., twice per day
[5] = day 2, 0.00001 ng/kg, p.o., twice per day
[6] = day 3, 0.00001 ng/kg, p.o., twice per day
[7] = day 4, 0.00001 ng/kg, p.o., twice per day
[8] = day 5, 0.00001 ng/kg, p.o., twice per day
[9] = day 6, after 2 treatments with escopolamine (0.25 mg/kg, i.p.), Example 42 at 0.00001 ng/kg p.o. twice per day
[10] = day 7, 0.00001 ng/kg, p.o., twice per day

SMILES: Cc1nc(Cl)c(Cl)n1CCCCN1CCN(c2ncccn2)CC1.O=C(O)CC(O)(CC(=O)O)C(=O)O [Example 42, 4,5-dichloro-2-methyl-1-{4-[4-(2-pyrimidinyl)-1-piperazinyl]-butyl}-1H-imidazole citrate]
- Activity % (norepinephrine antagonistic antihypertensive activity) [1]: 0%
- Period of immobility (immobility of mice; 1 mg/kg, p < 0.05, control 118 s): 64 s
- antidepressant activity (reduction of the period of immobility) (immobility of mice; mice): significantly reduces the period of immobility
- Activity % (inhibition of the conditioned avoidance response) ([2]; D = 80 mg/kg, p.o., 45 min before test): 82%
- ED50 ([2]; po, 0.75 h): 24.5 mg/kg
- Activity within 5 min. period, dark (D) [3, 4]: 82
- Activity within 5 min. period, light (L) [3, 4]: 36
- Latent period L-D [3, 4]: 11
- No. of times standing erect within 5 min period, dark (D) [3, 4]: 79
- No. of times standing erect within 5 min period, light (L) [3, 4]: 23
- Time in the box, dark (D) [3, 4]: 60
- Activity within 5 min. period, dark (D) [3, 5]: 167
- Activity within 5 min. period, light (L) [3, 5]: 11
- Latent period L-D [3, 5]: 2
- No. of times standing erect within 5 min period, dark (D) [3, 5]: 147
- No. of times standing erect within 5 min period, light (L) [3, 5]: 10
- Time in the box, dark (D) [3, 5]: 80
- Activity within 5 min. period, dark (D) [3, 6]: 179
- Activity within 5 min. period, light (L) [3, 6]: 10
- Latent period L-D [3, 6]: 2
- No. of times standing erect within 5 min period, dark (D) [3, 6]: 156
- No. of times standing erect within 5 min period, light (L) [3, 6]: 8
- Time in the box, dark (D) [3, 6]: 79
- Activity within 5 min. period, dark (D) [3, 7]: 183
- Activity within 5 min. period, light (L) [3, 7]: 9
- Latent period L-D [3, 7]: 1.5
- No. of times standing erect within 5 min period, dark (D) [3, 7]: 161
- No. of times standing erect within 5 min period, light (L) [3, 7]: 9
- Time in the box, dark (D) [3, 7]: 83
- Activity within 5 min. period, dark (D) [3, 8]: 176
- Activity within 5 min. period, light (L) [3, 8]: 12
- Latent period L-D [3, 8]: 1
- No. of times standing erect within 5 min period, dark (D) [3, 8]: 151
- No. of times standing erect within 5 min period, light (L) [3, 8]: 11
- Time in the box, dark (D) [3, 8]: 82
- Activity within 5 min. period, dark (D) [3, 9]: 181
- Activity within 5 min. period, light (L) [3, 9]: 14
- Latent period L-D [3, 9]: 1.5
- No. of times standing erect within 5 min period, dark (D) [3, 9]: 172
- No. of times standing erect within 5 min period, light (L) [3, 9]: 10
- Time in the box, dark (D) [3, 9]: 81
- Activity within 5 min. period, dark (D) [3, 10]: 187
- Activity within 5 min. period, light (L) [3, 10]: 8
- Latent period L-D [3, 10]: 1
- No. of times standing erect within 5 min period, dark (D) [3, 10]: 181
- No. of times standing erect within 5 min period, light (L) [3, 10]: 8
- Time in the box, dark (D) [3, 10]: 83
- effect on the effects of escopolamine ([3]; escopolamine 2×0.25 mg/kg, i.p., day six): blocks the effects of escopolamine
- cognition-improving activity ([3]; mice): has a cognition-improving activity
- effect on the learning process ([3]; mice): improves the learning process
